Columns and labels:
Assay type in all cases: biochemical
[1] = target: PI3K δ (Homo sapiens, UniProt O00329); assay: In vitro IC50, PI3K δ; parameters: purchased Upstate
From the text: (§1) An exemplary system is PI 3-Kinase (human) HTRF™ Assay from Upstate.

[2] = target: PI3K β (Homo sapiens, UniProt P42338); assay: In vitro IC50, PI3K β
From the text: as §1

[3] = target: T1, PI3K α (Homo sapiens, UniProt P42336); assay: In vitro IC50, PI3K α
T1 construct: purchased Upstate
From the text: as §1

[4] = target: T2, PI3K γ (Homo sapiens, UniProt P48736); assay: In vitro IC50, PI3K γ
T2 construct: purchased Sigma
From the text: as §1

PI3K β, sequence (P42338 whole entry): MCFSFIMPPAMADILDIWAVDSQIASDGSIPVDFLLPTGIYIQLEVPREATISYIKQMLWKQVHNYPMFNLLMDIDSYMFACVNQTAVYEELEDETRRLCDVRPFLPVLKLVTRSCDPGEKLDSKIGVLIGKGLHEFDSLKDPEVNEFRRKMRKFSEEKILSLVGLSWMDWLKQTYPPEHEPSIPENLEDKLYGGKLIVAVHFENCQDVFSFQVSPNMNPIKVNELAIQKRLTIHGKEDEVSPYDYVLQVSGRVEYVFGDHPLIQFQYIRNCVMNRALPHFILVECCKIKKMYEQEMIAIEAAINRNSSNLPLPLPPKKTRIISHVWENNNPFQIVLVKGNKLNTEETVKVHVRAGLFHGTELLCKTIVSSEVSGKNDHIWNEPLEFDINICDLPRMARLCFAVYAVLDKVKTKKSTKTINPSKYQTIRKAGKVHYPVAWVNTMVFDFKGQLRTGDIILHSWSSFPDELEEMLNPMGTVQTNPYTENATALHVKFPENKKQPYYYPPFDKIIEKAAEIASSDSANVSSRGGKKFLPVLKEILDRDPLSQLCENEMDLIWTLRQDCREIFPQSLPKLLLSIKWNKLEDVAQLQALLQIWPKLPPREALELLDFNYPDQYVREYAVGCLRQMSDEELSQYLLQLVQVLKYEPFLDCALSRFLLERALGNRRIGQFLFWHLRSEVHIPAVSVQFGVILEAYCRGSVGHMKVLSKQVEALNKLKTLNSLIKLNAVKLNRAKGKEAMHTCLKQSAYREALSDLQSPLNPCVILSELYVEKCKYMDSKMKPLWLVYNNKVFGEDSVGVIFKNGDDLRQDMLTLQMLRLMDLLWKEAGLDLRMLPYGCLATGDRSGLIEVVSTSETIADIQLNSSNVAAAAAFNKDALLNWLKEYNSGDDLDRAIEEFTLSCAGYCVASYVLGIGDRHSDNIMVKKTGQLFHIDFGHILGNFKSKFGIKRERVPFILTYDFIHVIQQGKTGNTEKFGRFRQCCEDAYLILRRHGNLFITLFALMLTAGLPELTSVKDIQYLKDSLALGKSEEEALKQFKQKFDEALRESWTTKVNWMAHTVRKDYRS
T1 sequence (P42336 whole entry): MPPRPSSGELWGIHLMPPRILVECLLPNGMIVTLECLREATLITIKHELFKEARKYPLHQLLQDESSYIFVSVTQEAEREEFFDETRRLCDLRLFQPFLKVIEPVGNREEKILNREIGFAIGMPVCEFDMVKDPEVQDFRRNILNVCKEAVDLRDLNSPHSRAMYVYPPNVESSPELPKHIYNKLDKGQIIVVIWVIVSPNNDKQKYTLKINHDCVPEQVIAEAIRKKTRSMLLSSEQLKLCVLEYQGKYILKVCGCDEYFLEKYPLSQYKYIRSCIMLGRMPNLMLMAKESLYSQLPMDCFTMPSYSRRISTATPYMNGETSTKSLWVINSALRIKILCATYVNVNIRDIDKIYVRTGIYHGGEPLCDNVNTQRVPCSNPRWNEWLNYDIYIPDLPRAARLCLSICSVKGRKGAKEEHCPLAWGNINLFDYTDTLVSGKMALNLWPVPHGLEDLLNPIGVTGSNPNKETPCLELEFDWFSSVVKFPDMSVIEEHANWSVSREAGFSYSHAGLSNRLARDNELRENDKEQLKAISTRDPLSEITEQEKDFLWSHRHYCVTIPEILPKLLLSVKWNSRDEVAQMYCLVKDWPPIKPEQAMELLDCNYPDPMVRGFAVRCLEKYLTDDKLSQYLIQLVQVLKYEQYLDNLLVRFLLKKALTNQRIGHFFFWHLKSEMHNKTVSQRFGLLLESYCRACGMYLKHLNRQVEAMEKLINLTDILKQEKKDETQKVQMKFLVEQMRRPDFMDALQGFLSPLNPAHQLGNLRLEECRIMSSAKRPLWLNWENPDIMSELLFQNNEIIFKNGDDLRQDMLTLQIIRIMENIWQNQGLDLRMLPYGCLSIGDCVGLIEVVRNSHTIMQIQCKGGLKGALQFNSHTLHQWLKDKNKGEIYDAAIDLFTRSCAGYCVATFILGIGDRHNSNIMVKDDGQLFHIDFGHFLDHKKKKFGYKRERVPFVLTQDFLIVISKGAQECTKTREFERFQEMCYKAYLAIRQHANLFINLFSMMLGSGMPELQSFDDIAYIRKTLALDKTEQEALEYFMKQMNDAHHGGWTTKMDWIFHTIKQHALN
T1 sequence (P27986 whole entry partner): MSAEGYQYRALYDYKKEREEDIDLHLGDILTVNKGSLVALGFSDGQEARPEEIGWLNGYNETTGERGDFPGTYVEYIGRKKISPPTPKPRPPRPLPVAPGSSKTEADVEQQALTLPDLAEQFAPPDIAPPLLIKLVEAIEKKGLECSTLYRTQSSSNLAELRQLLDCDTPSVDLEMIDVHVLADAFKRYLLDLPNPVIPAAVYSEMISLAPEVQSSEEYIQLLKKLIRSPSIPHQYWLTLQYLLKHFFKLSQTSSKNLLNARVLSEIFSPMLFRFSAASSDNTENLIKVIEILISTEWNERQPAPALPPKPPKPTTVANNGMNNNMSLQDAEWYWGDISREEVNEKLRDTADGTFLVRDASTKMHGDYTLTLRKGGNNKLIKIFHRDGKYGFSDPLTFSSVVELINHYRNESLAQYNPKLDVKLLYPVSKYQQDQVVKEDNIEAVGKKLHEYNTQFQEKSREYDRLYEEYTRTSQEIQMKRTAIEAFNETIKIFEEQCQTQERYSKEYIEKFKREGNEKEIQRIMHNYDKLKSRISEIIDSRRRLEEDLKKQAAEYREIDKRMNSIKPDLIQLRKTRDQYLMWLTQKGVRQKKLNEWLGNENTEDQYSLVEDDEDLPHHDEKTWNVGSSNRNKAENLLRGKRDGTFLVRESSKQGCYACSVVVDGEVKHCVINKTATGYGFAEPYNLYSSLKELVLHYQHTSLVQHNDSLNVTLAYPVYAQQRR
PI3K δ, sequence (O00329 whole entry): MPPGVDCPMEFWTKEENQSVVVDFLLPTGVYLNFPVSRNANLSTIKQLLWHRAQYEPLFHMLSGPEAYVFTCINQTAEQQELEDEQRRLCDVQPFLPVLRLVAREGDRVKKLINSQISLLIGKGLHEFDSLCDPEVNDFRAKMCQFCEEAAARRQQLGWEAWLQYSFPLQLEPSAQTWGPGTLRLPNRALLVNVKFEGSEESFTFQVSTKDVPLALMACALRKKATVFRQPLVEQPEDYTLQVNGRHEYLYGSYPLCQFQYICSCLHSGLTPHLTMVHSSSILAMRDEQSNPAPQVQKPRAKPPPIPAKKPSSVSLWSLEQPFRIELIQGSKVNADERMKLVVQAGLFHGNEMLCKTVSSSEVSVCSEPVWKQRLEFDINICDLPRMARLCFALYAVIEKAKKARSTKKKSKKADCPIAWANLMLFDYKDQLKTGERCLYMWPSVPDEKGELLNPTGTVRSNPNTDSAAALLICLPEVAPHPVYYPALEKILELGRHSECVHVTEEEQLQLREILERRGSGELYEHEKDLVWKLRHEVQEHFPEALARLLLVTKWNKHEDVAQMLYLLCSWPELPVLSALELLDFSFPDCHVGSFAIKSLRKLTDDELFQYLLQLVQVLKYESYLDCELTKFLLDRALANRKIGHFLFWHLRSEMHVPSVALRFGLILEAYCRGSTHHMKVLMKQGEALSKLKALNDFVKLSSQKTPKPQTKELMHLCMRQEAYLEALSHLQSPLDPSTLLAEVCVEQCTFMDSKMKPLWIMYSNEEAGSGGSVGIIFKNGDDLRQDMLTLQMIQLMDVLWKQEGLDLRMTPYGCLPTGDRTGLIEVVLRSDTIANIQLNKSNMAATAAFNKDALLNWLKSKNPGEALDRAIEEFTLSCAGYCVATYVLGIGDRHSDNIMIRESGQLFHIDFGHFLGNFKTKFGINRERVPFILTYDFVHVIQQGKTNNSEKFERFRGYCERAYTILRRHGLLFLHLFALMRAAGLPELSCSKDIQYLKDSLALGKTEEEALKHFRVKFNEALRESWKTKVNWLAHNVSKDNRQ
PI3K δ, sequence (P27986 whole entry partner): as the sequence (P27986 whole entry partner) above
T2 sequence (P48736 whole entry): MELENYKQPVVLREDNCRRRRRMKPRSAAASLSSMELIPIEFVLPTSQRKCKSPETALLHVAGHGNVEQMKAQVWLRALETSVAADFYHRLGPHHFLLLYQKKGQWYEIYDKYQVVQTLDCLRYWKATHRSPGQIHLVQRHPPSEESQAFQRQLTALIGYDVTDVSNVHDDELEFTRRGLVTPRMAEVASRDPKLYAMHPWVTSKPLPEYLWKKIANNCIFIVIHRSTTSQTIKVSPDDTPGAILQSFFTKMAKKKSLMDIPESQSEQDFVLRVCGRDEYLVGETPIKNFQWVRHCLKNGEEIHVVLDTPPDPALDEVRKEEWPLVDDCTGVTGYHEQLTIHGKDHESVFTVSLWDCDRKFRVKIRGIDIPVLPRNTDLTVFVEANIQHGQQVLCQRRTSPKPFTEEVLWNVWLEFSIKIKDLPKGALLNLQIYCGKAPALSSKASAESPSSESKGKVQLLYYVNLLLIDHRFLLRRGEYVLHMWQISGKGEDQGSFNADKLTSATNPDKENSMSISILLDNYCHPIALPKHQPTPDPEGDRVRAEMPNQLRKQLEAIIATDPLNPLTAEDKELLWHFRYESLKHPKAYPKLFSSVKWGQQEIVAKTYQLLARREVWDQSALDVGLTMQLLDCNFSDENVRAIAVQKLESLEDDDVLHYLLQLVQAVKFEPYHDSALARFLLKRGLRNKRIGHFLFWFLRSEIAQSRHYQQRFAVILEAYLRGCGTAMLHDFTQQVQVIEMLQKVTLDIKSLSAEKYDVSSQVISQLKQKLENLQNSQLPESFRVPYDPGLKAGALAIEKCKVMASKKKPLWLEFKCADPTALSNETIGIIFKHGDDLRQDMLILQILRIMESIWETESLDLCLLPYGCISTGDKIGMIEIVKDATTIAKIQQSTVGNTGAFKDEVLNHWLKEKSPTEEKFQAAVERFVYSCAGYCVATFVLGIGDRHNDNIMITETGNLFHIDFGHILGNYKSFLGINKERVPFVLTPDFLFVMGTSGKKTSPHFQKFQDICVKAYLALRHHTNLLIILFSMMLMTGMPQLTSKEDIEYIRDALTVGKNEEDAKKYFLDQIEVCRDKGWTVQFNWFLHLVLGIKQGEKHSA

SMILES	IC50 [1]	IC50 [2]	IC50 [3]	IC50 [4]
Cc1cccc2cc(Cn3nc(-c4ccc(O)c(F)c4)c4c(N)ncnc43)n(-c3ccccc3F)c(=O)c12 [Compound 29]	< 1 µM	> 10 µM	> 10 µM	< 0.1 µM
Cc1cccc2cc(Cn3nc(Cl)c4c(N)ncnc43)n(-c3ccccc3F)c(=O)c12 [Compound 34]	< 1 µM	> 10 µM	> 10 µM	< 10 µM
Cc1cccc2cc(Cn3nc(Br)c4c(N)ncnc43)n(-c3ccccc3F)c(=O)c12 [Compound 35]	< 1 µM	> 10 µM	> 10 µM	< 10 µM
Cc1ccccc1-n1c(Cn2nc(-c3ccc(O)cc3)c3c(N)ncnc32)cc2cccc(C)c2c1=O [Compound 36]	< 1 µM	> 10 µM	> 10 µM	< 0.1 µM
Cc1ccccc1-n1c(Cn2nc(-c3cccc(Cl)c3)c3c(N)ncnc32)cc2cccc(C)c2c1=O [Compound 39]	< 10 µM	> 10 µM	> 10 µM	< 1 µM
Cc1cccc2cc(Cn3nc(-c4cccc(F)c4)c4c(N)ncnc43)n(-c3ccccc3F)c(=O)c12 [Compound 40]	< 10 µM	> 10 µM	> 10 µM	< 10 µM
Cc1ccccc1-n1c(Cn2nc(-c3cccc(F)c3)c3c(N)ncnc32)cc2cccc(C)c2c1=O [Compound 41]	< 10 µM	> 10 µM	> 10 µM	< 1 µM
Cc1ccccc1-n1c(Cn2nc(I)c3c(N)ncnc32)cc2cccc(F)c2c1=O [Compound 42]	< 1 µM	> 10 µM	> 10 µM	< 10 µM
Cc1ccccc1-n1c(Cn2nc(C#C[C@@H](C)O)c3c(N)ncnc32)cc2cccc(F)c2c1=O [Compound 43]	< 1 µM	> 10 µM	> 10 µM	> 10 µM
COc1ccc(-c2nn(Cc3cc4cccc(C)c4c(=O)n3-c3ccccc3C)c3ncnc(N)c23)cc1OC [Compound 44]	< 1 µM	> 10 µM	> 10 µM	< 0.1 µM
Cc1cccc2cc(Cn3nc(-c4ccc(O)cc4)c4c(N)ncnc43)n(-c3ccccc3F)c(=O)c12 [Compound 46]	< 10 µM	> 10 µM	> 10 µM	< 1 µM
Cc1cccc2cc(Cn3nc(I)c4c(N)ncnc43)n(C3CCCC3)c(=O)c12 [Compound 57]	< 1 µM	> 10 µM	> 10 µM	< 10 µM
Cc1cccc2cc(Cn3nc(-c4ccc(F)c(O)c4)c4c(N)ncnc43)n(C(C)C)c(=O)c12 [Compound 67]	< 0.1 µM	< 10 µM	> 10 µM	< 0.1 µM
Cc1cccnc1-n1c(Cn2nc(-c3ccc(F)c(O)c3)c3c(N)ncnc32)cc2cccc(C)c2c1=O [Compound 68]	< 0.1 µM	> 10 µM	> 10 µM	< 0.1 µM
Cc1cccnc1-n1c(Cn2nc(C#C[C@@H](C)O)c3c(N)ncnc32)cc2cccc(C)c2c1=O [Compound 69]	< 1 µM	> 10 µM	> 10 µM	> 10 µM
COc1ccccc1-n1c(Cn2nc(I)c3c(N)ncnc32)cc2cccc(C)c2c1=O [Compound 70]	< 0.1 µM	> 10 µM	> 10 µM	< 1 µM

SMILES	IC50 [1]	IC50 [2]	IC50 [3]	IC50 [4]
Cc1cccc2cc(Cn3nc(-c4ccc(Cl)c(O)c4)c4c(N)ncnc43)n(C3CCCC3)c(=O)c12 [Compound 71]	< 1 µM	< 10 µM	> 10 µM	< 1 µM
Cc1cccnc1-n1c(Cn2nc(-c3ccc(Cl)c(O)c3)c3c(N)ncnc32)cc2cccc(C)c2c1=O [Compound 72]	< 0.1 µM	< 10 µM	> 10 µM	< 0.1 µM
Cc1cccnc1-n1c(Cn2nc(-c3cccc(O)c3)c3c(N)ncnc32)cc2cccc(C)c2c1=O [Compound 73]	< 0.1 µM	> 10 µM	> 10 µM	< 1 µM
COc1ccccc1-n1c(Cn2nc(-c3cccc(O)c3)c3c(N)ncnc32)cc2cccc(C)c2c1=O [Compound 74]	< 0.1 µM	< 10 µM	> 10 µM	< 0.1 µM
Cc1cccc2cc(Cn3nc(I)c4c(N)ncnc43)n(-c3ccccc3O)c(=O)c12 [Compound 79]	< 0.1 µM	> 10 µM	> 10 µM	< 0.1 µM
COc1ccccc1-n1c(Cn2nc(C#C[C@@H](C)O)c3c(N)ncnc32)cc2cccc(C)c2c1=O [Compound 80]	< 0.1 µM	> 10 µM	> 10 µM	< 1 µM
Cc1cccc2cc(Cn3nc(-c4cccc(O)c4)c4c(N)ncnc43)n(-c3ccccc3O)c(=O)c12 [Compound 81]	< 0.1 µM	< 10 µM	> 10 µM	< 0.1 µM
Cc1cccc2cc(Cn3nc(-c4cccc(O)c4)c4c(N)ncnc43)n(-c3ccccc3C(C)C)c(=O)c12 [Compound 82]	< 0.1 µM	< 1 µM	> 10 µM	< 0.1 µM
Cc1cccc2cc(Cn3nc(C#C[C@@H](C)O)c4c(N)ncnc43)n(-c3ccccc3C(C)C)c(=O)c12 [Compound 83]	< 0.1 µM	< 10 µM	> 10 µM	< 0.1 µM
COc1ccccc1-n1c(Cn2nc(-c3cc(O)cc(F)c3)c3c(N)ncnc32)cc2cccc(C)c2c1=O [Compound 84]	< 0.1 µM	< 10 µM	< 10 µM	< 0.1 µM
Cc1cccc2cc(Cn3nc(I)c4c(N)ncnc43)n(C3CC3)c(=O)c12 [Compound 86]	< 0.1 µM	< 10 µM	< 10 µM	< 0.1 µM
Cc1cccc2cc(Cn3nc(I)c4c(N)ncnc43)n(C3CCCCC3)c(=O)c12 [Compound 87]	< 1 µM	> 10 µM	> 10 µM	< 0.1 µM
CCc1ccccc1-n1c(Cn2nc(-c3cccc(O)c3)c3c(N)ncnc32)cc2cccc(C)c2c1=O [Compound 88]	< 0.1 µM	> 10 µM	> 10 µM	< 0.1 µM
CCc1ccccc1-n1c(Cn2nc(-c3cc(O)cc(F)c3)c3c(N)ncnc32)cc2cccc(C)c2c1=O [Compound 89]	< 0.1 µM	< 1 µM	< 10 µM	< 0.1 µM
Cc1cccc2cc(Cn3nc(-c4cc(O)cc(F)c4)c4c(N)ncnc43)n(-c3ccccc3O)c(=O)c12 [Compound 90]	< 0.1 µM	< 1 µM	< 10 µM	< 0.1 µM

Continued, values first:

IC50 [1]	IC50 [2]	IC50 [3]	IC50 [4]	SMILES
< 0.1 µM	> 10 µM	> 10 µM	< 1 µM	Cc1cccc2cc(Cn3nc(C#C[C@@H](C)O)c4c(N)ncnc43)n(-c3ccccc3F)c(=O)c12 [Compound 28]
< 0.1 µM	> 10 µM	> 10 µM	< 10 µM	Cc1ccccc1-n1c(Cn2nc(C#C[C@@H](C)O)c3c(N)ncnc32)cc2cccc(C)c2c1=O [Compound 37]
< 0.1 µM	> 10 µM	> 10 µM	< 0.1 µM	Cc1ccccc1-n1c(Cn2nc(-c3ccc(Cl)c(O)c3)c3c(N)ncnc32)cc2ccccc2c1=O [Compound 52]
< 0.1 µM	> 10 µM	> 10 µM	< 0.1 µM	Cc1ccccc1-n1c(Cn2nc(-c3ccc(F)c(O)c3)c3c(N)ncnc32)cc2ccccc2c1=O [Compound 54]
< 0.1 µM	< 10 µM	> 10 µM	< 1 µM	Cc1ccccc1-n1c(Cn2nc(-c3cc(O)cc(F)c3)c3c(N)ncnc32)cc2cccc(F)c2c1=O [Compound 55]
< 0.1 µM	> 10 µM	> 10 µM	< 0.1 µM	Cc1ccccc1-n1c(Cn2nc(-c3ccc(F)c(O)c3)c3c(N)ncnc32)cc2cccc(F)c2c1=O [Compound 56]
< 0.1 µM	< 10 µM	> 10 µM	< 1 µM	Cc1cccc2cc(Cn3nc(-c4cccc(O)c4)c4c(N)ncnc43)n(C3CCCC3)c(=O)c12 [Compound 58]
< 0.1 µM	> 10 µM	> 10 µM	< 0.1 µM	Cc1ccccc1-n1c(Cn2nc(-c3cccc(O)c3)c3c(N)ncnc32)cc2cccc(F)c2c1=O [Compound 59]
< 0.1 µM	> 10 µM	> 10 µM	> 10 µM	Cc1cccc2cc(Cn3nc(I)c4c(N)ncnc43)n(C(C)C)c(=O)c12 [Compound 60]
< 0.1 µM	< 10 µM	> 10 µM	< 10 µM	Cc1cccc2cc(Cn3nc(C#C[C@@H](C)O)c4c(N)ncnc43)n(C(C)C)c(=O)c12 [Compound 61]
< 0.1 µM	< 1 µM	> 10 µM	< 0.1 µM	Cc1cccc2cc(Cn3nc(-c4cccc(O)c4)c4c(N)ncnc43)n(C(C)C)c(=O)c12 [Compound 62]
< 0.1 µM	< 10 µM	< 10 µM	< 0.1 µM	Cc1cccc2cc(Cn3nc(-c4cc(O)cc(F)c4)c4c(N)ncnc43)n(C3CCCC3)c(=O)c12 [Compound 63]
< 0.1 µM	> 10 µM	> 10 µM	< 0.1 µM	Cc1cccc2cc(Cn3nc(-c4ccc(F)c(O)c4)c4c(N)ncnc43)n(C3CCCC3)c(=O)c12 [Compound 64]
< 0.1 µM	< 10 µM	> 10 µM	< 10 µM	Cc1cccc2cc(Cn3nc(C#C[C@@H](C)O)c4c(N)ncnc43)n(C3CCCC3)c(=O)c12 [Compound 65]
< 0.1 µM	< 1 µM	< 10 µM	< 1 µM	Cc1cccc2cc(Cn3nc(-c4cc(O)cc(F)c4)c4c(N)ncnc43)n(C(C)C)c(=O)c12 [Compound 66]

Reference: patent US20140120083A1, “TREATMENT OF CANCERS USING PI3 KINASE ISOFORM MODULATORS” (INFINITY PHARMACEUTICALS, INC., priority 2012, published 2014)
